In PubChem BioAssay AID644 (The Scripps Research Institute Molecular Screening Center, 2007):
The source made the active and inactive calls.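 How the source made its calls: active means IC50 at or below a set limit; inactive means IC50 above that limit.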

target: Rho-associated protein kinase 2 (Homo sapiens) (UniProt O75116); test: human Rho kinase 2 inhibition – biochemical, Kinase-Glo luminescence, S6 peptide, 1536-well, dose response (AID 644); conditions: recombinant ROCK2, S6 peptide, Kinase-Glo ATP luminescence
Sequence (O75116 whole entry, looked up): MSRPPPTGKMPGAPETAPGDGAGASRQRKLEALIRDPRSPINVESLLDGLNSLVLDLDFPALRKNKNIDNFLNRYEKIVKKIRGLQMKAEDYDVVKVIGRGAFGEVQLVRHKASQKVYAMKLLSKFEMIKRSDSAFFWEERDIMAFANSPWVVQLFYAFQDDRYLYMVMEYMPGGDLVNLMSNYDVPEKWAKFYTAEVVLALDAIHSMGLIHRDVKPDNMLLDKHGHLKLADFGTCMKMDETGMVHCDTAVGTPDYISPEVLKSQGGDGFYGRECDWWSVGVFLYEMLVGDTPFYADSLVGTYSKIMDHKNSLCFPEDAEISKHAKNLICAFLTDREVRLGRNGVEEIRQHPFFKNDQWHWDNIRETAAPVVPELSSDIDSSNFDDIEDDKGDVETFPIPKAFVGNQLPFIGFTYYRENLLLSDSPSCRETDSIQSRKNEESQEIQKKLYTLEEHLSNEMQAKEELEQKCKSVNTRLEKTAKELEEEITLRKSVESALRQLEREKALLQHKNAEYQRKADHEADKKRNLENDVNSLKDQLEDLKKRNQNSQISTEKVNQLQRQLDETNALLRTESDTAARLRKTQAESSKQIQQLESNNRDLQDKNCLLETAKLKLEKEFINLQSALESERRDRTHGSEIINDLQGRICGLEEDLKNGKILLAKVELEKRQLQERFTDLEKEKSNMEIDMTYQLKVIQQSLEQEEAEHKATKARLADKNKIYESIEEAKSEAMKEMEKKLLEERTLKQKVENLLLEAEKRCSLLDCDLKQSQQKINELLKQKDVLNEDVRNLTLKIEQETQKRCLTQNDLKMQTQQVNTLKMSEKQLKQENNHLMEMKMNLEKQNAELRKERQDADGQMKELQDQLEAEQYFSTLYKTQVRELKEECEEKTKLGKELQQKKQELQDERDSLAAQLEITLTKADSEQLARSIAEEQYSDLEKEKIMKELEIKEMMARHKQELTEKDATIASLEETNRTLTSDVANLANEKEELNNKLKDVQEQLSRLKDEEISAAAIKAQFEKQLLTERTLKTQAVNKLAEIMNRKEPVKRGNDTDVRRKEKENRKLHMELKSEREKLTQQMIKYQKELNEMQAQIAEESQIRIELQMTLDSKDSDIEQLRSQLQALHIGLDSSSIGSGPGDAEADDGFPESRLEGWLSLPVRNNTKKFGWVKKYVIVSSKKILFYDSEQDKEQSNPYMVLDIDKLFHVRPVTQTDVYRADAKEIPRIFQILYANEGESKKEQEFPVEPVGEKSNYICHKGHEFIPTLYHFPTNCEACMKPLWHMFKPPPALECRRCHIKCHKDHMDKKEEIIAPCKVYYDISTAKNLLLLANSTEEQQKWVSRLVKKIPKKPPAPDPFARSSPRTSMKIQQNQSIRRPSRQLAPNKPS

Q: For COC(=O)c1cccc2c1-c1ccccc1/C2=N/O, which IC50 is on record?
A: > 19.9 µM (inactive)

Q: With CN1/C(=N\O)c2cccc3cccc1c23 as the compound, how does the IC50 read?
A: > 19.9 µM (inactive)

Q: Which IC50 does the source give for COc1cc(N=Cc2c(O)[nH]c3ccccc23)cc(OC)c1OC here?
A: inactive

Q: CC1=NN(c2ccccc2)C(=O)C1 was tested. Which IC50 did it give?
A: > 59.6 µM (inactive)

Q: For Cc1[nH]nc2c1C(c1ccc(-c3ccccc3C#N)o1)C(C#N)=C(N)O2 (stereo not drawn), which IC50 is on record?
A: > 19.9 µM (inactive)

Q: How did the IC50 turn out when O/N=C/c1c[nH]c2ccccc12 was run?
A: 4.81 µM

Q: Which IC50 does the source give for CCOC(=O)C1=C(CSc2nc(-c3ccncc3)ccc2C#N)OC(N)=C(C#N)C1c1cccnc1 (stereo not drawn) here?
A: > 19.9 µM (inactive)

Q: How did the IC50 turn out when CN(C(=O)c1cccc(N2C(=O)C3CC=CCC3C2=O)c1)C1CCCCC1 (stereo not drawn) was run?
A: > 59.6 µM (inactive)
